Laboratory results as given in paper PMC10044120, “Potent and selective covalent inhibition of the papain-like protease from SARS-CoV-2” (Nature Communications, 2023).
Several values for one entry are separate records, joined by “and”; a condition that tells them apart may be missing. Identical values can stand only once. Like-named read-outs stand apart in the source and are kept apart here.

Tests used:
[1] = test system: Caco-2 cells; conditions: for Percent Cytotoxicity (Neutral Red): Caco-2
[2] = test system: SARS-CoV-2 USA-WA1/2020; assay: CPE assay, neutral red, Vero E6 cells with 2 μM CP-100356, USA-WA1/2020; format: cell-based; conditions: for Percent Cytopathic Effect (Neutral Red): USA-WA1/2020
[3] = test system: SARS-CoV-2 Delta (B.1.617.2); assay: microbe, parasite or virus in culture; format: cell-based; conditions: Delta (B1.617.2), Caco-2
[4] = test system: SARS-CoV-2 Omicron (B.1.1.529); assay: microbe, parasite or virus in culture; format: cell-based; conditions: Omicron (B1.1.529), Caco-2
[5] = test system: SARS-CoV-2 Delta (B.1.617.2); assay: CPE assay, neutral red, Vero E6 cells with 2 μM CP-100356, Delta; format: cell-based; conditions: Delta (B1.617.2), Vero E6, 2 μM CP-100356
[6] = test system: Vero E6 cells; conditions: for Percent Cytotoxicity (Neutral Red): Vero E6
[7] = test system: SARS-CoV-2 USA-WA1/2020; assay: microbe, parasite or virus in culture; format: cell-based; conditions: for Virus Titer: USA-WA1/2020
[8] = test system: HAUSP; conditions: cited from earlier work
[9] = test system: UCH-L3; conditions: cited from earlier work
[10] = test system: Vero E6 cells; conditions: African green monkey
[11] = in vitro; conditions: African green monkey, cytotoxicity, %cell viability
[12] = test system: SARS-CoV-2 isolate USA-WA1/2020; conditions: African green monkey
[13] = test system: UCH-L1; conditions: cited from earlier work
[14] = molecular target: deISGylase USP18; conditions: cited from earlier work
[15] = test system: SARS-CoV-2 isolate USA-WA1/2020; assay: microbe, parasite or virus in culture; conditions: Severe acute respiratory syndrome coronavirus 2, Vero C1008, read-out: cytopathic effect, % cell viability

## O=c1nc(NO)ccn1[C@@H]1O[C@H](CO)[C@@H](O)[C@H]1O [EIDD-1931]
[1]; Caco-2, Delta rows
  CC50: > 100 µM
[1]; Caco-2, Omicron rows
  CC50: > 100 µM
[1]; Caco-2, USA-WA1/2020 rows
  CC50: 94 µM
[1]; SARS2-740 (Delta set), 0.1 µg/mL
  Percent Cytotoxicity (Neutral Red): 7.9%
[1]; SARS2-740 (Delta set), 1 µg/mL
  Percent Cytotoxicity (Neutral Red): 14.7%
[1]; SARS2-740 (Delta set), 10 µg/mL
  Percent Cytotoxicity (Neutral Red): 5.3%
[1]; SARS2-740 (Delta set), 32 µg/mL
  Percent Cytotoxicity (Neutral Red): 15.2%
[1]; SARS2-740 (Delta set), 100 µg/mL
  Percent Cytotoxicity (Neutral Red): 30.0%
[1]; SARS2-740 (Omicron set), 0.1 µg/mL
  Percent Cytotoxicity (Neutral Red): 0.118%
[1]; SARS2-740 (Omicron set), 1 µg/mL
  Percent Cytotoxicity (Neutral Red): 4.7%
[1]; SARS2-740 (Omicron set), 10 µg/mL
  Percent Cytotoxicity (Neutral Red): 1.2%
[1]; SARS2-740 (Omicron set), 32 µg/mL
  Percent Cytotoxicity (Neutral Red): 6.1%
[1]; SARS2-740 (Omicron set), 100 µg/mL
  Percent Cytotoxicity (Neutral Red): 24.6%
[1]; SARS2-740 (USA-WA1/2020 set), 0.1 µg/mL
  Percent Cytotoxicity (Neutral Red): 15.6%
[1]; SARS2-740 (USA-WA1/2020 set), 1 µg/mL
  Percent Cytotoxicity (Neutral Red): 13.4%
[1]; SARS2-740 (USA-WA1/2020 set), 10 µg/mL
  Percent Cytotoxicity (Neutral Red): 13.8%
[1]; SARS2-740 (USA-WA1/2020 set), 32 µg/mL
  Percent Cytotoxicity (Neutral Red): 17.6%
[1]; SARS2-740 (USA-WA1/2020 set), 100 µg/mL
  Percent Cytotoxicity (Neutral Red): 51.9%
[2]; USA-WA1/2020, Vero E6, 2 μM CP-100356
  EC50: 0.3 µM
[2]; 0.1 µg/mL
  Percent Cytopathic Effect (Neutral Red): 95.9%
[2]; 1 µg/mL
  Percent Cytopathic Effect (Neutral Red): 0.0%
[2]; 10 µg/mL
  Percent Cytopathic Effect (Neutral Red): 0.559%
[2]; 100 µg/mL
  Percent Cytopathic Effect (Neutral Red): 0.0%
[3]
  EC90: 4.9 µM
[4]
  EC90: 2.9 µM
[5]
  EC50: 0.31 µM
[6]; Vero E6, 2 μM CP-100356, Delta rows
  CC50: > 100 µM
[6]; Vero E6, 2 μM CP-100356, Omicron rows
  CC50: > 100 µM
[6]; Vero E6, 2 μM CP-100356, USA-WA1/2020 rows
  CC50: > 100 µM
[6]; SARS2-733 (Delta set), 0.1 µg/mL
  Percent Cytotoxicity (Neutral Red): 2.1%
[6]; SARS2-733 (Delta set), 1 µg/mL
  Percent Cytotoxicity (Neutral Red): 5.1%
[6]; SARS2-733 (Delta set), 10 µg/mL
  Percent Cytotoxicity (Neutral Red): 36.7%
[6]; SARS2-733 (Delta set), 100 µg/mL
  Percent Cytotoxicity (Neutral Red): 48.2%
[6]; SARS2-733 (Omicron set), 0.1 µg/mL
  Percent Cytotoxicity (Neutral Red): 0.0%
[6]; SARS2-733 (Omicron set), 1 µg/mL
  Percent Cytotoxicity (Neutral Red): 0.0%
[6]; SARS2-733 (Omicron set), 10 µg/mL
  Percent Cytotoxicity (Neutral Red): 28.4%
[6]; SARS2-733 (Omicron set), 100 µg/mL
  Percent Cytotoxicity (Neutral Red): 45.6%
[6]; SARS2-735, 0.1 µg/mL
  Percent Cytotoxicity (Neutral Red): 0.0%
[6]; SARS2-735, 1 µg/mL
  Percent Cytotoxicity (Neutral Red): 0.0%
[6]; SARS2-735, 10 µg/mL
  Percent Cytotoxicity (Neutral Red): 23.0%
[6]; SARS2-735, 100 µg/mL
  Percent Cytotoxicity (Neutral Red): 38.9%
[7]; USA-WA1/2020, Caco-2
  EC90: 0.12 µM
[7]; 0.1 µg/mL
  Virus Titer: 3.7 CCID50/mL (Log10)
[7]; 1 µg/mL
  Virus Titer: <0.7 CCID50/mL (Log10)
[7]; 10 µg/mL
  Virus Titer: <0.7 CCID50/mL (Log10)
[7]; 32 µg/mL
  Virus Titer: <0.7 CCID50/mL (Log10)
[7]; 100 µg/mL
  Virus Titer: <0.7 CCID50/mL (Log10)

## Cc1ccc(N)cc1C(=O)N[C@H](C)c1cccc2ccccc12 [GRL0617, reference compound]
[8]
  IC50: > 100 µM
[9]
  IC50: > 100 µM
[10]; 2.08 µM
  cytotoxicity, %cell viability: 100.64%
[10]; 8.33 µM
  cytotoxicity, %cell viability: 100.01%
[10]; 16.65 µM
  cytotoxicity, %cell viability: 87.87%
[11]
  viability at 2.08 µM: 99.1%
  viability at 8.33 µM: 93.3%
  viability at 16.65 µM: 80.3%
  viability at […]: 104% and 102% and 77.8% and 100%
[12]; 2.08 µM
  inhibition: 8.22%
[12]; 8.33 µM
  inhibition: 3.62%
[13]
  IC50: > 100 µM
[14]
  IC50: > 100 µM
[15]
  inhibition at 2.08 µM: 15.2%
  inhibition at 8.33 µM: 7.11%
  inhibition at […]: 11.5% and 6.73% and 8.44%
